This assay relates to 171881-019-R-J1-PDC multicell spheroid viability. Description: Anticancer human tumor 171881-019-R-J1-PDC patient-derived invasive breast carcinoma cell line growth inhibition [IpAb]. As to conditions: for viability, T/C: stronger effect = lower value. The essentials: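 Combinations with ipatasertib or abemaciclib were tested on tumour spheroids holding HUVEC (25%) and MSC (15%) alongside 60% malignant cells. Top concentration was at or near clinical Cmax (10 microM if undefined), descending in half-log steps.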

Setting [1] is: curve of first compound, second compound 0.1 µM.
The mark [2] stands for this setting: curve of first compound, second compound 0.316 µM.
The mark [3] stands for this setting: curve of first compound, second compound 1 µM.
[4] abbreviates: second compound 0.1 µM, first compound 0.00949 µM.
Where [5] appears, read: second compound 0.1 µM, first compound 0.03 µM.
The mark [6] stands for this setting: second compound 0.1 µM, first compound 0.0949 µM.
Setting [7] is: second compound 0.1 µM, first compound 0.3 µM.
Where [8] appears, read: second compound 0.316 µM, first compound 0.00949 µM.
Where [9] appears, read: second compound 0.316 µM, first compound 0.03 µM.
The mark [10] stands for this setting: second compound 0.316 µM, first compound 0.0949 µM.
Where [11] appears, read: second compound 0.316 µM, first compound 0.3 µM.
The mark [12] stands for this setting: second compound 1 µM, first compound 0.00949 µM.
Setting [13] is: second compound 1 µM, first compound 0.03 µM.
Setting [14] is: second compound 1 µM, first compound 0.0949 µM.
The mark [15] stands for this setting: second compound 1 µM, first compound 0.3 µM.

“And” between values parts separate entries of the source, which are not always exact repeats. Equal values may be shown once.
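Also: spheroids exposed to the agents for seven days before readout.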

As a reminder, the IC50 is the concentration at which inhibition is half-maximal. The term viability, T/C denotes the result in the treated group divided by that in the control group, in per cent. Take `CC(=O)c1c(C)c2cnc(Nc3ccc(N4CCNCC4)cn3)nc2n(C2CCCC2)c1=O` + CC(C)NCC(C(=O)N1CCN(c2ncnc3c2C(C)CC3O)CC1)c1ccc(Cl)cc1: the IC50 reads like this: under setting [1], above 300 nM; under setting [2], above 300 nM; under setting [3], below 0.949 nM; (curve of first compound, second compound 3.16 µM) below 0.949 nM; (curve of first compound, second compound 10 µM) below 0.949 nM. The viability, T/C by setting is: (second compound 0.1 µM, first compound 0.000949 µM) 98.8%; (second compound 0.1 µM, first compound 0.003 µM) 112%; under setting [4], 94%; under setting [5], 106%; under setting [6], 103%; under setting [7], 93.5%. The viability, T/C is 83.3% (second compound 0.316 µM, first compound 0.000949 µM); 84.8% (second compound 0.316 µM, first compound 0.003 µM); 77.4% under setting [8]; 76.1% under setting [9]; 64.6% under setting [10]; 59.6% under setting [11]. In addition, the viability, T/C by setting is: (second compound 1 µM, first compound 0.000949 µM) 30.8%; (second compound 1 µM, first compound 0.003 µM) 26.1%; under setting [12], 27.8%; under setting [13], 25.9%; under setting [14], 26.1%; under setting [15], 23.9%. In addition, the viability, T/C (second compound 3.16 µM, first compound 0.000949 µM) is 12.4%; the viability, T/C (second compound 3.16 µM, first compound 0.003 µM) was 11.8%; the viability, T/C (second compound 3.16 µM, first compound 0.00949 µM) is 12.2%; the viability, T/C (second compound 3.16 µM, first compound 0.03 µM) is 10.2%; the viability, T/C (second compound 3.16 µM, first compound 0.0949 µM) was 9.89%; the viability, T/C (second compound 3.16 µM, first compound 0.3 µM) was 9.65%. Besides, the viability, T/C is, setting by setting: (second compound 10 µM, first compound 0.000949 µM) 6.66%; (second compound 10 µM, first compound 0.003 µM) 6.56%; (second compound 10 µM, first compound 0.00949 µM) 6.69%; (second compound 10 µM, first compound 0.03 µM) 5.87%; (second compound 10 µM, first compound 0.0949 µM) 5.79%; (second compound 10 µM, first compound 0.3 µM) 5.34%.

For `CCCS(=O)(=O)Nc1ccc(F)c(C(=O)c2c[nH]c3ncc(-c4ccc(Cl)cc4)cc23)c1F`, the viability, T/C is 111% and 90.2% (compound 0.0316 µM); 95.2% and 83% (compound 0.1 µM); 86.9% and 93.1% (compound 0.316 µM); 90.1% and 80.4% (compound 1 µM); 78.3% and 72.6% (compound 3.16 µM); 76.2% and 87.7% (compound 10 µM). Further, the concentration for half-maximal inhibition (IC50) (curve of compound) is above 10000 nM.

With `CC(C)(C)c1cnc(CSc2cnc(NC(=O)C3CCNCC3)s2)o1` + CCN1CCN(Cc2ccc(Nc3ncc(F)c(-c4cc(F)c5nc(C)n(C(C)C)c5c4)n3)nc2)CC1, the IC50 is, setting by setting: (curve of first compound, second compound 0.01 µM) 174 nM; (curve of first compound, second compound 0.0316 µM) 182 nM; under setting [1], 191 nM; under setting [2], 196 nM; under setting [3], 185 nM. Also, the viability, T/C was 104% (second compound 0.01 µM, first compound 0.00949 µM); 93.6% (second compound 0.01 µM, first compound 0.03 µM); 114% (second compound 0.01 µM, first compound 0.0949 µM); 5.39% (second compound 0.01 µM, first compound 0.3 µM); 0.26% (second compound 0.01 µM, first compound 0.949 µM); 0.29% (second compound 0.01 µM, first compound 3 µM). The viability, T/C by setting is: (second compound 0.0316 µM, first compound 0.00949 µM) 110%; (second compound 0.0316 µM, first compound 0.03 µM) 99.8%; (second compound 0.0316 µM, first compound 0.0949 µM) 121%; (second compound 0.0316 µM, first compound 0.3 µM) 3.9%; (second compound 0.0316 µM, first compound 0.949 µM) 0.25%; (second compound 0.0316 µM, first compound 3 µM) 0.36%. In addition, the viability, T/C is, setting by setting: under setting [4], 116%; under setting [5], 125%; under setting [6], 138%; under setting [7], 0.81%; (second compound 0.1 µM, first compound 0.949 µM) 0.47%; (second compound 0.1 µM, first compound 3 µM) 0.46%. Also, the viability, T/C by setting is: under setting [8], 132%; under setting [9], 126%; under setting [10], 141%; under setting [11], 1.4%; (second compound 0.316 µM, first compound 0.949 µM) 0.27%; (second compound 0.316 µM, first compound 3 µM) 0.57%. Moreover, the viability, T/C is 148% under setting [12]; 143% under setting [13]; 118% under setting [14]; 1.51% under setting [15]; 0.68% (second compound 1 µM, first compound 0.949 µM); 1.06% (second compound 1 µM, first compound 3 µM).

As to `Cn1ncc(Cl)c1-c1cc(C(=O)NC(CN)Cc2cccc(F)c2)sc1Cl` (stereo unspecified), the viability, T/C by setting is: (compound 0.0316 µM) 107% and 112%; (compound 0.1 µM) 64.8% and 67.2%; (compound 0.316 µM) 29.7% and 27.4%; (compound 1 µM) 11.8% and 13.5%; (compound 3.16 µM) 3.57% and 3.17%; (compound 10 µM) 0.84% and 0.66%. The IC50 (curve of compound) was 163 nM and 167 nM.

As for `CC1(C)CCC(CN2CCN(c3ccc(C(=O)NS(=O)(=O)c4ccc(NCC5CCOCC5)c([N+](=O)[O-])c4)c(Oc4cnc5[nH]ccc5c4)c3)CC2)=C(c2ccc(Cl)cc2)C1`, the viability, T/C is 107% and 93.6% (compound 0.0316 µM); 102% and 84.1% (compound 0.1 µM); 93.8% and 78.3% (compound 0.316 µM); 92.5% and 66.3% (compound 1 µM); 89.8% and 87.8% (compound 3.16 µM); 23.9% and 16.5% (compound 10 µM). Further, the IC50 (curve of compound) was 6280 nM and 5550 nM.

Values taken from PubChem BioAssay AID2060342 (Molecular Pharmacology Branch, DTP, NCI, 2025).
